Data: PubChem BioAssay (NCI)
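Dose response: 5 concentrations. Exposure: 48 h. Format: 96-well plates. Endpoint: linear interpolation; highest concentration if not reached. Definition used: TGI = concentration required for complete inhibition of growth.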

Key:
Experiment in all cases: DTP human tumour cell line panel, 48 h
CCRF-CEM leukemia = test system: CCRF-CEM leukemia
RXF 393 renal = test system: RXF 393 renal
HCT-116 colon = test system: HCT-116 colon
SK-OV-3 ovarian = test system: SK-OV-3 ovarian
NCI-H460 lung = test system: NCI-H460 lung
M19-MEL melanoma = test system: M19-MEL melanoma
KM12 colon = test system: KM12 colon
LXFL 529 NSCLC = test system: LXFL 529 NSCLC
DMS 114 small cell lung = test system: DMS 114 small cell lung
SNB-19 CNS = test system: SNB-19 CNS
SK-MEL-2 melanoma = test system: SK-MEL-2 melanoma
SN12C renal = test system: SN12C renal
M14 melanoma = test system: M14 melanoma
MALME-3M melanoma = test system: MALME-3M melanoma
SR leukemia = test system: SR leukemia
OVCAR-5 ovarian = test system: OVCAR-5 ovarian
HT29 colon = test system: HT29 colon
HL-60(TB) leukemia = test system: HL-60(TB) leukemia
EKVX NSCLC = test system: EKVX NSCLC
SF-268 CNS = test system: SF-268 CNS
SNB-75 CNS = test system: SNB-75 CNS
UACC-257 melanoma = test system: UACC-257 melanoma
DLD-1 colon = test system: DLD-1 colon
TK-10 renal = test system: TK-10 renal
RPMI-8226 leukemia = test system: RPMI-8226 leukemia
LOX IMVI melanoma = test system: LOX IMVI melanoma
A498 renal = test system: A498 renal
MOLT-4 leukemia = test system: MOLT-4 leukemia
U251 CNS = test system: U251 CNS
SK-MEL-28 melanoma = test system: SK-MEL-28 melanoma
OVCAR-4 ovarian = test system: OVCAR-4 ovarian
K-562 leukemia = test system: K-562 leukemia
OVCAR-3 ovarian = test system: OVCAR-3 ovarian
NCI-H522 lung = test system: NCI-H522 lung
HCC-2998 colon = test system: HCC-2998 colon
ACHN renal = test system: ACHN renal
UO-31 renal = test system: UO-31 renal
NCI-H23 lung = test system: NCI-H23 lung
HOP-62 NSCLC = test system: HOP-62 NSCLC
UACC-62 melanoma = test system: UACC-62 melanoma
XF 498 CNS = test system: XF 498 CNS
SF-539 CNS = test system: SF-539 CNS
SNB-78 CNS = test system: SNB-78 CNS
786-0 renal = test system: 786-0 renal
SW-620 colon = test system: SW-620 colon
NCI-H226 lung = test system: NCI-H226 lung
SF-295 CNS = test system: SF-295 CNS
SK-MEL-5 melanoma = test system: SK-MEL-5 melanoma
OVCAR-8 ovarian = test system: OVCAR-8 ovarian
KM20L2 colon = test system: KM20L2 colon
HCT-15 colon = test system: HCT-15 colon
CAKI-1 renal = test system: CAKI-1 renal
IGROV1 ovarian = test system: IGROV1 ovarian
A549 NSCLC = test system: A549 NSCLC
COLO 205 colon = test system: COLO 205 colon

O=S(O)CCCCCSSc1ccccc1
TGI (CCRF-CEM leukemia): 50.3 µM
TGI (RXF 393 renal): 89.2 µM
TGI (HCT-116 colon): 70.2 µM
TGI (SK-OV-3 ovarian): > 100 µM
TGI (NCI-H460 lung): > 100 µM
TGI (M19-MEL melanoma): > 100 µM
TGI (KM12 colon): > 100 µM
TGI (LXFL 529 NSCLC): 37.9 µM
TGI (DMS 114 small cell lung): 66.6 µM
TGI (SNB-19 CNS): > 100 µM
TGI (SK-MEL-2 melanoma): 53.3 µM
TGI (SN12C renal): > 100 µM
TGI (M14 melanoma): > 100 µM
TGI (MALME-3M melanoma): > 100 µM
TGI (SR leukemia): 35 µM
TGI (OVCAR-5 ovarian): > 100 µM
TGI (HT29 colon): > 100 µM
TGI (HL-60(TB) leukemia): 88.1 µM
TGI (EKVX NSCLC): > 100 µM
TGI (SF-268 CNS): 85.5 µM
TGI (SNB-75 CNS): 99.5 µM
TGI (UACC-257 melanoma): > 100 µM
TGI (DLD-1 colon): > 100 µM
TGI (TK-10 renal): > 100 µM
TGI (RPMI-8226 leukemia): 56.4 µM
TGI (LOX IMVI melanoma): 38.4 µM
TGI (A498 renal): > 100 µM
TGI (MOLT-4 leukemia): 34.2 µM
TGI (U251 CNS): 94.1 µM
TGI (SK-MEL-28 melanoma): > 100 µM
TGI (OVCAR-4 ovarian): > 100 µM
TGI (K-562 leukemia): > 100 µM
TGI (OVCAR-3 ovarian): > 100 µM
TGI (NCI-H522 lung): 42 µM
TGI (HCC-2998 colon): > 100 µM
TGI (ACHN renal): > 100 µM
TGI (UO-31 renal): > 100 µM
TGI (NCI-H23 lung): > 100 µM
TGI (HOP-62 NSCLC): > 100 µM
TGI (UACC-62 melanoma): 79.9 µM
TGI (XF 498 CNS): 72.3 µM
TGI (SF-539 CNS): 62.6 µM
TGI (SNB-78 CNS): > 100 µM

COC(=O)C1CC2C=CC=CC(=O)C2(C)C1 (configuration not stated)
TGI (786-0 renal): > 100 µM
TGI (CCRF-CEM leukemia): 71.8 µM
TGI (SW-620 colon): 90.1 µM
TGI (HCT-116 colon): 86.3 µM
TGI (SK-OV-3 ovarian): > 100 µM
TGI (NCI-H226 lung): > 100 µM
TGI (NCI-H460 lung): > 100 µM
TGI (SF-295 CNS): > 100 µM
TGI (SK-MEL-5 melanoma): > 100 µM
TGI (M19-MEL melanoma): > 100 µM
TGI (KM12 colon): > 100 µM
TGI (LXFL 529 NSCLC): > 100 µM
TGI (DMS 114 small cell lung): > 100 µM
TGI (OVCAR-8 ovarian): > 100 µM
TGI (SNB-19 CNS): > 100 µM
TGI (SK-MEL-2 melanoma): > 100 µM
TGI (SN12C renal): > 100 µM
TGI (M14 melanoma): 88.5 µM
TGI (MALME-3M melanoma): > 100 µM
TGI (SR leukemia): 76.5 µM
TGI (OVCAR-5 ovarian): > 100 µM
TGI (HT29 colon): > 100 µM
TGI (HL-60(TB) leukemia): 55.1 µM
TGI (EKVX NSCLC): > 100 µM
TGI (SF-268 CNS): > 100 µM
TGI (UACC-257 melanoma): > 100 µM
TGI (KM20L2 colon): > 100 µM
TGI (DLD-1 colon): 28.9 µM
TGI (HCT-15 colon): > 100 µM
TGI (TK-10 renal): > 100 µM
TGI (RPMI-8226 leukemia): 59.5 µM
TGI (LOX IMVI melanoma): > 100 µM
TGI (A498 renal): > 100 µM
TGI (CAKI-1 renal): > 100 µM
TGI (MOLT-4 leukemia): > 100 µM
TGI (U251 CNS): > 100 µM
TGI (IGROV1 ovarian): > 100 µM
TGI (OVCAR-4 ovarian): > 100 µM
TGI (K-562 leukemia): > 100 µM
TGI (OVCAR-3 ovarian): > 100 µM
TGI (A549 NSCLC): > 100 µM
TGI (ACHN renal): > 100 µM
TGI (UO-31 renal): > 100 µM
TGI (NCI-H23 lung): > 100 µM
TGI (HOP-62 NSCLC): > 100 µM
TGI (UACC-62 melanoma): > 100 µM
TGI (SF-539 CNS): > 100 µM
TGI (COLO 205 colon): > 100 µM
TGI (SNB-78 CNS): > 100 µM
